Measurements published in publication PMC12396291, “DNA-encoded library screening uncovers potent DNMT2 inhibitors targeting a cryptic allosteric binding site” (iScience, 2025).
Several values for one entry are separate records, joined by “and”; a condition that tells them apart may be missing. Identical values can stand only once. Entries after “also recorded” stand apart in the source; their conditions may differ. Blank lines part the entries; values can stand above or below the compound they belong to.

What was measured:
[1] = Solubility remark from ITC titration; assay type: physicochemical; settings: ITC buffer, remark in words
Description: (§1) The DNMT2 protein was purified via size exclusion chromatography eluting in isothermal titration calorimetry (ITC) buffer (50 mM sodium phosphate pH 8.0, 300 mM NaCl, 1 mM EDTA, 2 mM β-mercaptoethanol, 0.1% polysorbate-20) and directly used for measurements.[3] All compounds were dissolved in DMSO to a concentration of 5 mM and were then diluted in ITC buffer to a final concentration of 500 μM. DNMT2 was diluted to a final concentration of 50 μM with 10% DMSO to match the ligand stocks' DMSO concentration. For the ITC measurements, a MicroCal PEAQ-ITC Automated workstation (Malvern Panalytical) with a 200 μL Hastelloy cell and an injection syringe volume of 40 μL was used. All experiments were performed in triplicates at 25 °C unless otherwise noted. For each measurement, 19 compound injections (2 μL each) with an injection speed of 0.5 μL/s were added to the reaction cell containing DNMT2. The spacing time between sequential injections was 300 s, and the stirring speed was set to 750 rpm with a reference power of 42 μW. As control experiments, ligands were titrated into ITC buffer. Data analysis and fitting were carried out using the MicroCal PEAQ-ITC Analysis Software 1.21 and plotted in GraphPad Prism 8.0.1.

DNMT2 [2] = target: T1, DNMT2 (Homo sapiens, UniProt O14717); experiment: ^3H-based methyltransferase enzyme activity assay (^3H-SAM incorporation into tRNA^Asp); assay type: biochemical
T1 construct: Recombinant human DNMT2 (full-length); His-tag; made in house; host or cells: E. coli
T1 sequence (O14717 1-391): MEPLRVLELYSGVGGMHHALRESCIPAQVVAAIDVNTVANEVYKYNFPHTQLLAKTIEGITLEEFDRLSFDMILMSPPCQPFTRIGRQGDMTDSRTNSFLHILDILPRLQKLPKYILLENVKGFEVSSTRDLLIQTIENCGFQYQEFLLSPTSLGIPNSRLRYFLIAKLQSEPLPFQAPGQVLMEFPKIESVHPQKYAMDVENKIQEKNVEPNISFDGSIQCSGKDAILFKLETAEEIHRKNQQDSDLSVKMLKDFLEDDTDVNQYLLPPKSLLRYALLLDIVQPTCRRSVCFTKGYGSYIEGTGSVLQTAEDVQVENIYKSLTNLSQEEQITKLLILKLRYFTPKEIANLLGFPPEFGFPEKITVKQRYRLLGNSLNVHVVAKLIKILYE
Description: Enzymatic DNMT2 inhibition assays were carried out in 100 mM Tris-HCl, pH 8.0, 100 mM NH4OAc, 0.1 mM EDTA, 10 mM MgCl2, and 10 mM DTT as described previously.[3]^,[4] First, the tRNA^Asp substrate was heated to 75 °C for 5 min and cooled down to room temperature (RT) before it was added to the reaction mixture to a final concentration of 5 μM. The reaction mixture contained 250 nM DNMT2 and the ligand compounds at variable concentrations (5% DMSO). Enzymatic reactions were started by the addition of 0.9 μM SAM as a mixture of ^3H-SAM (Hartmann Analytics) resp. cold SAM (NEB) to a final activity of 0.025 μCi μL^−1. Enzyme assays were carried out for 30 min at 37 °C. As a negative control served the reaction mixture without DNMT2 and as a positive control the reaction mixture without test compound. After 30 min, aliquots of 8 μL were taken from the reaction mixture and spotted on Whatman glass microfiber filters (GF/C, 25 mm). The RNA was precipitated on the filters with 5% ice-cold TCA for 15 min. […] Scintillation was measured with a scintillation counter (TriCarb Liquid Scintillation Analyzer 4810 TR; measurement time of 1 min). For IC50-value determination, compounds were analyzed at a minimum of six different concentrations in triplicates. IC50-values were calculated, evaluated, and plotted in GraphPad Prism 8.0.1.

DNMT2 [3] = target: T1, DNMT2; experiment: MST displacement assay with fluorescent FTAD probe; assay type: binding; design: Fnorm (MST screening): unit not given here
Description: (§2) Screening for ligand binding and evaluation of dose-response affinity profiles was performed via microscale thermophoresis (MST) as described previously.[42] The measurements were conducted with a Nanotemper Technologies Monolith NT.115 device. All samples were measured in Monolith standard capillaries at 25 °C. The acquisition mode was set to “Nano-Blue” with an excitation power of 30% and a medium MST power, while the system was controlled using the software MO.Control (version 1.6.1) and for evaluation MO.Affinity Analysis (version 2.3) was used. The samples contained 2 μM DNMT2, 100 nM FTAD (5-FAM-triazolyl-adenosyl-Dab) probe, and 1.3% DMSO in MST buffer (50 mM HEPES, 150 mM NaCl, 1 mM dithiothreitol (DTT), 0.1% PEG-8000, 0.05% polysorbate-20, pH 7.4).[42] All compounds were employed at a final concentration of 100 μM for the initial ligand screening.

DNMT2 [4] = target: T1, DNMT2; experiment: Isothermal titration calorimetry (ITC), direct titration; assay type: binding; settings: direct titration at 25 °C; n.b. = no enthalpy signal observable
Description: as §1

DNMT2 [5] = target: T1, DNMT2; experiment: Affinity selection-mass spectrometry (AS-MS); assay type: binding; settings: 5 μM DNMT2, label-free
Description: Orthogonal KD-value determination for compound 3 was conducted by an affinity selection-mass spectrometry (AS-MS) assay according to Prudent et al.[43] and Simon et al.[67] Compound 3 was dissolved in DMSO (20 mM) and a dilution series in Tris buffer (25 mM Tris, 100 mM NaCl, pH 7.5) was prepared to give final ligand concentrations of 100 μM, 50 μM, 25 μM, 12.5 μM, 6.25 μM, 3.12 μM, 1.56 μM, and 0 μM. DNMT2 was diluted in Tris buffer (130 μM) and added to the dilution series to give a final concentration of 5 μM DNMT2. Zeba Spin Desalting columns 7K MWCO were used for the affinity-based separation. These columns were centrifuged at 2000g for 1 min to remove the storage buffer. 20 μL of the prepared samples were loaded to the columns, and the protein-ligand complex was eluted by centrifugation at 2000g for 2 min. The centrifuged solutions were diluted with 10 μL ACN and analyzed by LC/MS with an Agilent 1100 Series HPLC system. The data evaluation and subsequent binding affinity determination were performed with MestReNova (version 14.0.1) and GraphPad Prism 8.0.1.

DNMT2Δ47 = target: T2, DNMT2Δ47 (Homo sapiens, UniProt O14717, DEL191-237); experiment: MST FTAD assay with deletion mutant; assay type: binding; settings: DNMT2Δ47 2 μM, FTAD probe; read-out: affinity (MST KD) against DNMT2Δ47
T2 construct: His-tag; made in house; host or cells: E. coli (host printed only for the crystallization preparation)
T2 sequence (O14717 with tags, fused parts or gaps DEL191-237): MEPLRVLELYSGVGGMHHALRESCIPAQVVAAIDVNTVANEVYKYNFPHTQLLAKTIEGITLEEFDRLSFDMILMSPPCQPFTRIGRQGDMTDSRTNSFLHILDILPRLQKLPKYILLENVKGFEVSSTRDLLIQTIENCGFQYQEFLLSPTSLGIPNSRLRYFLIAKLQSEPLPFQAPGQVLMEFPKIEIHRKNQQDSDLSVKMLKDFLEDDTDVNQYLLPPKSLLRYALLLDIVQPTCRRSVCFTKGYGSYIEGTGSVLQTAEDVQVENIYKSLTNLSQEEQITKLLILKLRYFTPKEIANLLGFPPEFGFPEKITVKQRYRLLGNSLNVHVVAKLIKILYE
Description: as §2

[6] = Parallel artificial membrane permeation assay (PAMPA); assay type: in vitro ADME; settings: 7 h incubation, duplicates
Description: To determine the passive permeability of selected DNMT2 ligands, a parallel artificial membrane permeation assay (PAMPA) was performed as described previously.[68] The experiment was performed in duplicates with Sigma-Aldrich MAIPNTR10 donor plates with 5 μL of an artificial membrane (1% w/v L-α-phosphatidylcholine in n-dodecane) per well. After incubation for 7 h, the acceptor solutions were evaluated by LC/MS (HP Agilent 1100 Series). The peak areas in the UV chromatogram (λ = 210 nm) were used to calculate the areas under the curve (AUCs).

DNMT2 in MOLM-13 cells = target: T3, DNMT2 in MOLM-13 cells (Homo sapiens, UniProt O14717); experiment: Cellular thermal shift assay (CETSA); assay type: cell-based; settings: MOLM-13, 50 μM, 16 h
T3 construct: engages DNMT2 in the MOLM-13 cellular environment, we performed cellular thermal shift assays (CETSA); endogenous in cells; host or cells: MOLM-13
T3 sequence (O14717 1-391): T1 sequence (O14717 1-391)
Description: After incubation for 16 h (37 °C, 5% CO2), the cell suspensions were collected. The cells were washed twice and then counted, followed by the addition of 1 mL PBS. The cell suspension was divided into eight parts, and then heated for 4 min at various temperatures (40, 43, 46, 49, 52, 55, 58 °C) in a PCR thermocycler. The cells were lysed through a freeze-thaw process using liquid nitrogen. The supernatant solutions were used for immunoblotting analysis. […] Proteins were separated by SDS−PAGE on 4–20% Criterion TGX Precast Protein Gels (Bio-Rad) and transferred to Amersham Protean 0.45 μm nitrocellulose membrane (Cytiva) using semi-dry transfer (25 V, 1 A, Towbin buffer). […] Subsequently, the membrane was incubated for 3 h at RT with IRDye 680RD Goat anti-Rabbit (1:1000, LICOR, 926–68071). Protein bands were visualized using a GE Healthcare Typhoon Trio biomolecular scanner, with laser excitation at 637 nm and fluorescence detection at 670 nm. The ImageLab software (Bio-Rad) was used for band quantification.

[7] = ATP-quantifying cell viability assay, 48 h; assay type: cell-based; settings: human, MOLM-13, HCT, Huh-7, MDA-MB-231 and HEK293 cells, all cell lines
MOLM-13 cells = experiment: Cell viability assay, doxorubicin co-treatment; assay type: cell-based; settings: Homo sapiens; MOLM-13, doxorubicin 48 h; read-out: CC50 (only doxorubicin)
Description: Cell viability assays were conducted with MOLM-13 cells, Huh-7, MDA-MB-231, HEK293, and HCT MTase mutant cell lines (WT, knock-down DNMT2, and knock-down NSUN2) to investigate the DNMT2 inhibiting compounds’ cellular effect. Cells were cultured according to standard protocols: MOLM-13 (RPMI, 10% FBS, 1x Penicillin/Streptomycin, 37 °C, 5% CO2), Huh-7/MDA-MB-231/HEK293 (DMEM, 10% FBS, 1x Penicillin/Streptomycin, 37 °C, 5% CO2) and HCT (McCoys’s 5A Medium, 10% FBS, L-Glutamine, 1x Penicillin/Streptomycin, 37 °C, 5% CO2). Cell viability was assessed using Promega Cell Titer Glo assay kit (MOLM-13, Huh-7, MDA-MB-231, HEK293) or Lonza ViaLight Plus Cell Proliferation and Cytotoxicity BioAssay Kit (HCT cell lines). Briefly, 1000 cells were seeded in white Greiner half-area 96-well plates and incubated for 48 h with inhibitors/ligands from DMSO stocks (final: 0.1% DMSO) under standard cultivation conditions. Then, the cell titer reagent was added to each well according to the manufacturer’s protocols, and luminescence was measured using a Tecan Spark 10M plate reader (MOLM-13, Huh-7, MDA-MB-231, HEK293) or Molecular Devices FlexStation (HCT cell lines).

DNMT2-eIF4E interaction = target: T4, DNMT2-eIF4E interaction (Homo sapiens, UniProt O14717); experiment: Pull-down competition assay; assay type: binding; settings: 100 μM sinefungin, 100 μM 16 or 10 μM tRNA^Asp
T4 construct: Recombinant human DNMT2 (full-length); host or cells: E. coli (DNMT2)
Description: (§3) For immobilization on streptavidin beads, DNMT2 was biotinylated using the EZ-Link Sulfo-NHS-LC-Biotinylation kit. A 20-fold excess of Sulfo-NHS-LC-Biotin (10 mM in water) was added to DNMT2 and incubated for 2 h on ice. […] The biotinylation level was estimated using a HABA assay included in the kit according to the manufacturer’s protocols.
(§4) For in vitro pull-down assays, biotinylated DNMT2 was immobilized on streptavidin-coated paramagnetic beads (GenScript Streptavidin MagBeads). For this, beads were washed with PBS buffer containing 0.05% Triton X-100, and subsequently, DNMT2 (30 μg per 50 μL beads) was immobilized for 45 min at RT. As a negative control, beads were treated with a protein-free buffered solution. Beads were washed with PBS buffer, and for each sample, 5 μL beads were added to either 1.5 μg of recombinant NonO protein (Active Motif) or 3.0 μg of recombinant eIF4E protein (Cayman). Beads were incubated for 1 h at RT, and subsequently, the supernatant was removed. […] The samples were incubated for 45 min at RT, and the supernatant was treated with 2 μL 5× Laemmli buffer. […] All samples were heated to 95 °C for 10 min and analyzed via SDS-PAGE. […] Protein bands were visualized using a GE Healthcare Typhoon Trio biomolecular scanner, with laser excitation at 488 nm and fluorescence detection at 580 nm.

DNMT2-NonO interaction = target: T5, DNMT2-NonO interaction (Homo sapiens, UniProt O14717); experiment: Pull-down competition assay; assay type: binding; settings: 100 μM SFG, 100 μM 16 or 10 μM tRNA^Asp
T5 construct: Recombinant human DNMT2 (full-length); host or cells: E. coli (DNMT2)
T5 sequence (O14717 1-391): T1 sequence (O14717 1-391)
T5 sequence (Q15233 1-471 partner): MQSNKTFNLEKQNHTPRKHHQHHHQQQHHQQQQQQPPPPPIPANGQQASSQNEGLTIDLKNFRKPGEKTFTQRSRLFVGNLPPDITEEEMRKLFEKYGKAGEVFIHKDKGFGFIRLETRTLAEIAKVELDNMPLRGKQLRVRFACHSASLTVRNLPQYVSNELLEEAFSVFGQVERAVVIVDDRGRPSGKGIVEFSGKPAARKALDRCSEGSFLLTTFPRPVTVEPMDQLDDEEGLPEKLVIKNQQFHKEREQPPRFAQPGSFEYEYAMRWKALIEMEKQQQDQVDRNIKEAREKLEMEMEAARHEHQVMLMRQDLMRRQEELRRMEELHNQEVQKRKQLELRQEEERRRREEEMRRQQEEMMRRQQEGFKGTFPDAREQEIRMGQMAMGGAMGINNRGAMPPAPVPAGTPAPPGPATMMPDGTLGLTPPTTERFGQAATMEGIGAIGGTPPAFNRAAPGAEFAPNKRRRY
Description: as §3, §4

T4 sequence (P06730 whole entry partner, one chain of several): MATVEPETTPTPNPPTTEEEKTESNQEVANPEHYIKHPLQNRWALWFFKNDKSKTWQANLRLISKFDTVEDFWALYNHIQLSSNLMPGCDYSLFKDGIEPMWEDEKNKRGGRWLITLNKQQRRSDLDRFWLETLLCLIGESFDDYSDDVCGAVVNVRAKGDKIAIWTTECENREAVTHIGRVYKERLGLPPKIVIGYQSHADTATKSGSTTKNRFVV

solubility [1]: low solubility
SMILES: CNC(=O)[C@@H](Nc1nc(N2CCN(c3c(C)cccc3C)CC2)nc(N(C)c2cccc(C)c2)n1)[C@@H](C)OC(C)(C)C [Compound 2]

IC50 (DNMT2 [2]): 38.9 ± 6.9 µM | FTAD displacement in the MST assay (DNMT2 [3]; DEL hits, result in words): quantitative FTAD displacement | Kd (DNMT2 [3]; FTAD probe 100 nM, 2 μM DNMT2, n.b. = no thermophoresis shift observable): 48 µM and 48.2 µM | Fnorm (% displ.): FTAD displacement (DNMT2 [3]; ligand 100 μM, FTAD probe): 53% | Fnorm (MST screening) (DNMT2 [3]; ligand 100 μM, FTAD probe): 912.1 | Kd (DNMT2 [4]): 5.3 µM and 5.31 µM | Kd (DNMT2 [5]): 8.4 ± 2.2 µM | Kd (DNMT2Δ47): 102 µM | thermal stabilization of DNMT2 (CETSA) (DNMT2 in MOLM-13 cells): no thermal stabilization occurred
SMILES: CCc1ccc(C(=O)NCC2(C(=O)NC(CC(=O)NCC(=O)NC)Cc3c[nH]c4ccccc34)CC2)cc1 (stereo not drawn) [Compound 3]
Papp (PAMPA) [6]: failed to pass through the artificial membrane; also recorded: below detection limit

SMILES: Nc1ncn([C@@H]2O[C@H](CO)[C@@H](O)[C@H]2O)c(=O)n1 [azacitidine]
CC50 at 48 h [7]: < 10 µM

SMILES: COc1cccc2c1C(=O)c1c(O)c3c(c(O)c1C2=O)C[C@@](O)(C(=O)CO)C[C@@H]3O[C@H]1C[C@H](N)[C@H](O)[C@H](C)O1 [doxorubicin]
CC50 (MOLM-13 cells): 0.045 ± 0.003 µM

displacement of NonO from immobilized DNMT2 (DNMT2-NonO interaction): NonO could not be displaced
SMILES: Nc1ncnc2c1ncn2[C@@H]1O[C@H](C[C@@H](N)CC[C@H](N)C(=O)O)[C@@H](O)[C@H]1O [sinefungin]
displacement of eIF4E from immobilized DNMT2 (DNMT2-eIF4E interaction): neither NonO nor eIF4E could be displaced
